One may read the IC50 as the concentration needed to halve the response being measured. For orientation: Ki means a dissociation constant, usually derived from enzyme kinetics or from competition with a known ligand.

Assay [1] has as its target T1, 5-hydroxytryptamine receptor 2C (Homo sapiens, UniProt P28335).
T1 sequence (P28335 whole entry): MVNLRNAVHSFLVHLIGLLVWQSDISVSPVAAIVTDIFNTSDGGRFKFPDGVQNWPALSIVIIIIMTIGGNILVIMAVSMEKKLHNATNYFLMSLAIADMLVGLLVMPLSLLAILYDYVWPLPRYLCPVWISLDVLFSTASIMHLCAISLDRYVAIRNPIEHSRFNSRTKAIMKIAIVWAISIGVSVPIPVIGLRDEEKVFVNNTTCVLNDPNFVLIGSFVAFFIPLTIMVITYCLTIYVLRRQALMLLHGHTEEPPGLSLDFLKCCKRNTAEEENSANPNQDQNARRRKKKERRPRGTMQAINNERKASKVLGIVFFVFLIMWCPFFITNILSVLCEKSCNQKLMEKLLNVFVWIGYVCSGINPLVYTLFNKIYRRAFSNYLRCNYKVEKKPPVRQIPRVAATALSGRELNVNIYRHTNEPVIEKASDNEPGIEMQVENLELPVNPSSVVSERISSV
Kind of assay: DRUGMATRIX: Serotonin (5-Hydroxytryptamine) 5-HT2C radioligand binding (ligand: [3H] Mesulergine). The format is cell membranes, CHO-K1, Membrane. To be noted: Not Active = under 50% inhibition at 10 µM.

Assay [2] is described as follows: DRUGMATRIX: Serotonin (5-Hydroxytryptamine) 5-HT3 radioligand binding (ligand: [3H] GR-65630). The class given is cell membranes, Membrane. The note with it: hek293; Not Active = under 50% inhibition at 10 µM.
Assay [3] in a line: DRUGMATRIX: Leukotriene, BLT (LTB4) radioligand binding (ligand: [3H]LTB4). The format is cell membranes, Membrane. The note with it: u-937; Not Active = under 50% inhibition at 10 µM.
Assay [4] is described as follows: DRUGMATRIX: Phorbol Ester radioligand binding (ligand: [3H] PDBu). The format is cell membranes, Mus musculus, ICR, Brain, Membrane. The note with it: Not Active = under 50% inhibition at 10 µM.
Another assay concerns the target Insulin receptor (Rattus norvegicus, UniProt P15127). The format is cell membranes, Wistar, Liver, Membrane. Note: in other assays of this panel Not Active means under 50% inhibition at 10 µM.
Another assay deals with Mu-type opioid receptor (Homo sapiens, UniProt P35372). Briefly: DRUGMATRIX: Opiate mu (OP3, MOP) radioligand binding (ligand: [3H] Diprenorphine). The class given is cell membranes, CHO-K1, Membrane. To be noted: cho-k1; Not Active = under 50% inhibition at 10 µM.
Chain of Mu-type opioid receptor (P35372 whole entry): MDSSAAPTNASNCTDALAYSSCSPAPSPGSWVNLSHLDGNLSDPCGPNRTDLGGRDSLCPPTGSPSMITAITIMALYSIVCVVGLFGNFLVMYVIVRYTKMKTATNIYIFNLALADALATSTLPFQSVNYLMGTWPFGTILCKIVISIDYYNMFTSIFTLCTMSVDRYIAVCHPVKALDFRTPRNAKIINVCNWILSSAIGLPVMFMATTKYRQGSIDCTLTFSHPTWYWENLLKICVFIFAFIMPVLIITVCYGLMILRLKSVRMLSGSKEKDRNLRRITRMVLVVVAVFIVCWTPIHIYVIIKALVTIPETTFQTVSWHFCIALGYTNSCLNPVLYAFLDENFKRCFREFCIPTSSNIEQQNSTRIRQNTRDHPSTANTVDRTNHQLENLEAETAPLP

Chain of Insulin receptor (P15127 27-759 limits assumed): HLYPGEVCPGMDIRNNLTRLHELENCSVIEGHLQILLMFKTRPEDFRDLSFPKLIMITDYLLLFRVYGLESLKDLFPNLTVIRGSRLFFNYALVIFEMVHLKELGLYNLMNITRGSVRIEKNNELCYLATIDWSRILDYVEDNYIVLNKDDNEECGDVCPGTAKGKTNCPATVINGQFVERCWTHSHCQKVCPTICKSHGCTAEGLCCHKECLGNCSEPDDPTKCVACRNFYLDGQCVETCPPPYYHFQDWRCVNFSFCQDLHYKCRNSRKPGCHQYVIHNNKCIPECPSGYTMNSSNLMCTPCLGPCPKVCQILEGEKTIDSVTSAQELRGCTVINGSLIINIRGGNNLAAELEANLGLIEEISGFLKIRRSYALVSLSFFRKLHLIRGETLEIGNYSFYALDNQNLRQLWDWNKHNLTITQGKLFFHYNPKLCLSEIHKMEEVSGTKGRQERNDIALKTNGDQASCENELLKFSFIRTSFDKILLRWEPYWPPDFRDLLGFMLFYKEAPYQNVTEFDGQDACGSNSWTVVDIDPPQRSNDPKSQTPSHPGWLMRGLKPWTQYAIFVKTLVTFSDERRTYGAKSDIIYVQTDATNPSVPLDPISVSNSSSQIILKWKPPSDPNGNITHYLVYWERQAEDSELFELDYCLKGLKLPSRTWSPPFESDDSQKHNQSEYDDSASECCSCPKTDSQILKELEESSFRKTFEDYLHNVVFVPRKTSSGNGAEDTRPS
Chain of Insulin receptor (P15127 764-1383 limits assumed): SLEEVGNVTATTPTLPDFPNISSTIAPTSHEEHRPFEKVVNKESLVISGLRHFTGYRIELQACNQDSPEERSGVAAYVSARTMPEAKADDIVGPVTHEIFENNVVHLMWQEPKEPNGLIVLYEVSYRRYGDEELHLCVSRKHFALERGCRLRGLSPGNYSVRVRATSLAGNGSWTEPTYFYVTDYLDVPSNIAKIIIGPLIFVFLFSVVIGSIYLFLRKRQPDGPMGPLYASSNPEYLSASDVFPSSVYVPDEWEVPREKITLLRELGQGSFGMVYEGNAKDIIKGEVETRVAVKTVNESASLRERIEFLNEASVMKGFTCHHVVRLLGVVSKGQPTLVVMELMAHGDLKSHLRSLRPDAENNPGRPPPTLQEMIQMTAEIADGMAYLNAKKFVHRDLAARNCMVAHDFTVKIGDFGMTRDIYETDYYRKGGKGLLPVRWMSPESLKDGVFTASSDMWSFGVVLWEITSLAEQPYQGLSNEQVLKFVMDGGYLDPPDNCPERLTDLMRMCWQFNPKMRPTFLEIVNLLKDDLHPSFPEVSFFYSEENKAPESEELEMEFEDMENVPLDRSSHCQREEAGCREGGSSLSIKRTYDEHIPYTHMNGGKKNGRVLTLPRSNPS

Regarding `CCCCc1nc(Cl)c(CO)n1Cc1ccc(-c2ccccc2-c2nnn[nH]2)cc1` [LOSARTAN], the IC50 entry (in assay [1] (cho-k1); in assay [2]; in assay [3]; in assay [4]; against Insulin receptor; at Mu-type opioid receptor) was “Not Active” each time. For the same compound, the inhibitory constant (Ki) result in assay [2], in assay [3] and in assay [4] was “Not Active” each time.

For the compound `Sc1ncnc2nc[nH]c12` [MERCAPTOPURINE ANHYDROUS], the 50% inhibitory concentration (IC50) result (in assay [1] (cho-k1); in assay [2]; in assay [3]; in assay [4]; against Insulin receptor; on Mu-type opioid receptor) was “Not Active” each time. Moreover, the inhibition constant Ki entry in assay [2], in assay [3] and in assay [4] was “Not Active” throughout.

For `C[C@](N)(Cc1ccc(O)c(O)c1)C(=O)O` [METHYLDOPA], the half-maximal inhibitory concentration (IC50) result (in assay [1] (cho-k1); in assay [2]; in assay [3]; in assay [4]; against Insulin receptor; on Mu-type opioid receptor) was “Not Active” throughout. In addition, the Ki result in assay [2], in assay [3] and in assay [4] was “Not Active” each time.

`C[C@]12CCC(=O)C=C1CC[C@@H]1[C@@H]2CC[C@@]2(C)[C@H]1CC[C@]2(C)O` [METHYLTESTOSTERONE]: the IC50 result (in assay [1] (cho-k1); in assay [2]; in assay [3]; in assay [4]; against Insulin receptor; at Mu-type opioid receptor) was “Not Active” each time. Further, the Ki entry in assay [2], in assay [3] and in assay [4] was “Not Active” in each case.

Consider `Cc1ccccc1N1C(=O)c2cc(S(N)(=O)=O)c(Cl)cc2NC1C` (stereo not given) [METOLAZONE], for which the IC50 entry (in assay [1] (cho-k1); in assay [2]; in assay [3]; in assay [4]; against Insulin receptor; at Mu-type opioid receptor) was “Not Active” in each case. Further, the Ki result in assay [2], in assay [3] and in assay [4] was “Not Active” throughout.

`COCCc1ccc(OCC(O)CNC(C)C)cc1` (stereo not given) [METOPROLOL]: the half-maximal inhibitory concentration (IC50) entry (in assay [1] (cho-k1); in assay [2]; in assay [3]; in assay [4]; against Insulin receptor; on Mu-type opioid receptor) was “Not Active” in each case. For the same compound, the inhibitory constant (Ki) entry in assay [2], in assay [3] and in assay [4] was “Not Active” each time.

Consider `CCn1cc(C(=O)O)c(=O)c2cc(F)c(N3CCNCC3)cc21` [NORFLOXACIN], for which the concentration for half-maximal inhibition (IC50) entry (in assay [1] (cho-k1); in assay [2]; in assay [3]; in assay [4]; against Insulin receptor; at Mu-type opioid receptor) was “Not Active” throughout. Moreover, the Ki result in assay [2], in assay [3] and in assay [4] was “Not Active” in each case.

With `NC1=NC(=O)C(c2ccccc2)O1` (stereo not given) [PEMOLINE], the IC50 result (in assay [1] (cho-k1); in assay [2]; in assay [3]; in assay [4]; at Insulin receptor; at Mu-type opioid receptor) was “Not Active” in each case. Moreover, the Ki result in assay [2], in assay [3] and in assay [4] was “Not Active” throughout.

Regarding `Nc1nc2c(ncn2CCC(CO)CO)c(=O)[nH]1` [PENCICLOVIR], the IC50 result (in assay [1] (cho-k1); in assay [2]; in assay [3]; in assay [4]; at Insulin receptor; at Mu-type opioid receptor) was “Not Active” throughout. Also, the inhibition constant (Ki) result in assay [2], in assay [3] and in assay [4] was “Not Active” in each case.

`C=C(C)C1(O)OC(=O)C=C1OC` (stereo not given) [PENICILLIC ACID]: the half-inhibitory concentration (IC50) entry (in assay [1] (cho-k1); in assay [2]; in assay [3]; in assay [4]; against Insulin receptor; on Mu-type opioid receptor) was “Not Active” in each case. Also, the Ki entry in assay [2], in assay [3] and in assay [4] was “Not Active” in each case.

As to `CC1(C)S[C@@H]2[C@H](NC(=O)Cc3ccccc3)C(=O)N2[C@H]1C(=O)O` [PENICILLIN G], the concentration for half-maximal inhibition (IC50) result (in assay [1] (cho-k1); in assay [2]; in assay [3]; in assay [4]; against Insulin receptor; at Mu-type opioid receptor) was “Not Active” in each case. Further, the Ki entry in assay [2], in assay [3] and in assay [4] was “Not Active” in each case.

For the compound `C1CCC(C(CC2CCCCN2)C2CCCCC2)CC1` (stereo not given) [PERHEXILINE], the concentration for half-maximal inhibition (IC50) entry (in assay [1] (cho-k1); in assay [2]; in assay [3]; in assay [4]; at Insulin receptor; on Mu-type opioid receptor) was “Not Active” in each case. For the same compound, the Ki entry in assay [2], in assay [3] and in assay [4] was “Not Active” each time.

Consider `CCOc1ccc(NC(C)=O)cc1` [PHENACETIN], for which the IC50 entry (in assay [1] (cho-k1); in assay [2]; in assay [3]; in assay [4]; at Insulin receptor; at Mu-type opioid receptor) was “Not Active” in each case. Besides, the Ki result in assay [2], in assay [3] and in assay [4] was “Not Active” each time.

For `CNNCc1ccc(C(=O)NC(C)C)cc1` [PROCARBAZINE], the IC50 result (in assay [1] (cho-k1); in assay [2]; in assay [3]; in assay [4]; against Insulin receptor; at Mu-type opioid receptor) was “Not Active” in each case. The Ki entry in assay [2], in assay [3] and in assay [4] was “Not Active” throughout.

`CN(C)CCCN1c2ccccc2Sc2ccccc21` [PROMAZINE]: the concentration for half-maximal inhibition (IC50) in assay [1] (read-out: IC50) is 99 nM; in assay [2], “Not Active”; in assay [3], “Not Active”; in assay [4], “Not Active”; on Insulin receptor, “Not Active”; on Mu-type opioid receptor, “Not Active”. Moreover, the Ki in assay [1] (read-out: Ki) was 52 nM; in assay [2], “Not Active”; in assay [3], “Not Active”; in assay [4] it was “Not Active”.

Consider `CC(O)CO` (stereo not given) [PROPYLENE GLYCOL], for which the 50% inhibitory concentration (IC50) entry (in assay [1] (cho-k1); in assay [2]; in assay [3]; in assay [4]; at Insulin receptor; at Mu-type opioid receptor) was “Not Active” each time. Besides, the Ki result in assay [2], in assay [3] and in assay [4] was “Not Active” in each case.

Source of the values: ChEMBL document CHEMBL1909046, “DrugMatrix in vitro pharmacology data”.
